Measured values published in patent US4205163A, “Tylosin derivatives” (Sanraku-Ocean Co., Ltd., priority 1977, dated 1980).
In brackets after ≈: the same amount, converted by molar mass.

Tests used:
Experiment in all cases: antimicrobial activity, broth dilution method
Type in all cases: cell-based
[1] = system: Staphylococcus aureus SMITH; conditions: Staphylococcus aureus, Staphylococcus aureus SMITH; broth dilution; read-out: minimum inhibitory concentration (MIC)
Experimental: (§1) Antimicrobial activity of the new antibiotics according to the present invention was measured on various pathogenic microorganisms by the broth dilution mehtod. Tab. […] The new antibiotics show a similar antimicrobial spectrum to that of tylosin as shown in Tab. 4. All the compounds have an excellent antimicrobial activity mainly on gram-positive bacteria. […] Test microorganisms with an asterisk mark (*) in Tab. 4 are all drug-resistant strains that were clinically isolated. More in detail, Staphylococcus aureus MS-8710 is resistant to tylosin, penicillin, tetracycline, erythromycin and leucomycin. Staphylococcus aureus MS-9931 is resistant to tylosin, penicillin, erythromycin, tetracycline, leucomycin, spiramycin and josamycin. And also Streptococcus piogenes is resistant to tylosin, erythromycin, oleandomycin and leucomycin.

[2] = system: Staphylococcus aureus MS-9937; conditions: MS9937; Staphylococcus aureus MS-9937, drug-resistant clinical isolate; read-out: minimum inhibitory concentration (MIC)
Experimental: as §1

[3] = system: Staphylococcus aureus MS-9931; conditions: MS9931; Staphylococcus aureus MS-9931, drug-resistant clinical isolate; read-out: minimum inhibitory concentration (MIC)
Experimental: as §1

Sarcina lutea ATCC 9341 = conditions: Micrococcus luteus, ATCC9341, Sarcina lutea ATCC 9341, read-out: minimum inhibitory concentration (MIC)
Experimental: as §1

[4] = system: Streptococcus pyogenes MH-771; conditions: Streptococcus pyogenes, MH771, Streptococcus pyogenes MH-771, drug-resistant clinical isolate; read-out: minimum inhibitory concentration (MIC)
Experimental: as §1

[5] = system: Staphylococcus aureus FDA-209P; conditions: Staphylococcus aureus, FDA209P, Staphylococcus aureus FDA-209P; broth dilution; read-out: minimum inhibitory concentration (MIC)
Experimental: as §1

[6] = system: Bacillus cereus ATCC 9634; conditions: Bacillus cereus, ATCC9634, Bacillus cereus ATCC 9634; broth dilution; read-out: minimum inhibitory concentration (MIC)
Experimental: as §1

[7] = system: Staphylococcus aureus MS-8710; conditions: Staphylococcus aureus, MS8710, Staphylococcus aureus MS-8710, drug-resistant clinical isolate; read-out: minimum inhibitory concentration (MIC)
Experimental: as §1

SMILES | MIC [1] | MIC [2] | MIC [3] | MIC (Sarcina lutea ATCC 9341) | MIC [4] | MIC [5] | MIC [6] | MIC [7]
CCC1OC(=O)CC(O)C(C)C(OC2OC(C)C(OC3CC(C)(O)C(OC(=O)Cc4cccc5ccccc45)C(C)O3)C(N(C)C)C2O)C(CC=O)CC(C)C(=O)C=CC(C)=CC1COC1OC(C)C(O)C(OC)C1OC (stereo not drawn) [Compound 22, 4"-α-naphthylacetyltylosin] | 1.56 µg/mL (≈ 1.44 µM) | 25 µg/mL (≈ 23.1 µM) | 25 µg/mL (≈ 23.1 µM) | 0.39 µg/mL (≈ 0.36 µM) | 50 µg/mL (≈ 46.1 µM) | 1.56 µg/mL (≈ 1.44 µM) | 1.56 µg/mL (≈ 1.44 µM) | 12.5 µg/mL (≈ 11.5 µM)
CCC1OC(=O)CC(OC(C)=O)C(C)C(OC2OC(C)C(OC3CC(C)(O)C(OC(=O)Cc4cccc5ccccc45)C(C)O3)C(N(C)C)C2O)C(CC=O)CC(C)C(=O)C=CC(C)=CC1COC1OC(C)C(O)C(OC)C1OC (stereo not drawn) [Compound 23, 3-acetyl-4"-α-naphthylacetyltylosin] | 0.78 µg/mL (≈ 0.693 µM) | 50 µg/mL (≈ 44.4 µM) | 25 µg/mL (≈ 22.2 µM) | 0.39 µg/mL (≈ 0.346 µM) | 25 µg/mL (≈ 22.2 µM) | 0.78 µg/mL (≈ 0.693 µM) | 0.78 µg/mL (≈ 0.693 µM) | 25 µg/mL (≈ 22.2 µM)
CCC1OC(=O)CC(OC(C)=O)C(C)C(OC2OC(C)C(OC3CC(C)(O)C(OC(=O)CCc4ccccc4)C(C)O3)C(N(C)C)C2O)C(CC=O)CC(C)C(=O)C=CC(C)=CC1COC1OC(C)C(O)C(OC)C1OC (stereo not drawn) [Compound 25, 3-acetyl-4"-β-phenylpropionyltylosin] | 0.78 µg/mL (≈ 0.715 µM) | 50 µg/mL (≈ 45.9 µM) | 50 µg/mL (≈ 45.9 µM) | 0.39 µg/mL (≈ 0.358 µM) | 25 µg/mL (≈ 22.9 µM) | 1.56 µg/mL (≈ 1.43 µM) | 0.78 µg/mL (≈ 0.715 µM) | 50 µg/mL (≈ 45.9 µM)
CCC1OC(=O)CC(OC(C)=O)C(C)C(OC2OC(C)C(OC3CC(C)(O)C(OC(=O)C(O)Cc4ccccc4)C(C)O3)C(N(C)C)C2O)C(CC=O)CC(C)C(=O)C=CC(C)=CC1COC1OC(C)C(O)C(OC)C1OC [Compound 26, 3-acetyl-4"-L-[(α-hydroxy-β-phenyl)propionyl]tylosin] | 0.78 µg/mL (≈ 0.705 µM) | 50 µg/mL (≈ 45.2 µM) | 50 µg/mL (≈ 45.2 µM) | 0.39 µg/mL (≈ 0.353 µM) | 12.5 µg/mL (≈ 11.3 µM) | 0.78 µg/mL (≈ 0.705 µM) | 0.78 µg/mL (≈ 0.705 µM) | 50 µg/mL (≈ 45.2 µM)
CCC1OC(=O)CC(OC(C)=O)C(C)C(OC2OC(C)C(OC3CC(C)(O)C(OC(=O)C(Cc4ccccc4)OC(C)=O)C(C)O3)C(N(C)C)C2O)C(CC=O)CC(C)C(=O)C=CC(C)=CC1COC1OC(C)C(O)C(OC)C1OC [Compound 27, 3-acetyl-4"-L-[(α-acetoxy-β-phenyl)propionyl]tylosin] | 0.78 µg/mL (≈ 0.679 µM) | 50 µg/mL (≈ 43.5 µM) | 50 µg/mL (≈ 43.5 µM) | 0.39 µg/mL (≈ 0.34 µM) | 25 µg/mL (≈ 21.8 µM) | 0.78 µg/mL (≈ 0.679 µM) | 0.78 µg/mL (≈ 0.679 µM) | 50 µg/mL (≈ 43.5 µM)
CCC1OC(=O)CC(OC(C)=O)C(C)C(OC2OC(C)C(OC3CC(C)(O)C(OC(=O)C(Cc4ccc(OC(C)=O)cc4)OC(C)=O)C(C)O3)C(N(C)C)C2O)C(CC=O)CC(C)C(=O)C=CC(C)=CC1COC1OC(C)C(O)C(OC)C1OC (stereo not drawn) [Compound 28, 3-acetyl-4"-[α-acetoxy-β-(4-acetoxyphenyl)propionyl]tylosin] | 1.56 µg/mL (≈ 1.29 µM) | 25 µg/mL (≈ 20.7 µM) | 50 µg/mL (≈ 41.4 µM) | 0.78 µg/mL (≈ 0.647 µM) | 25 µg/mL (≈ 20.7 µM) | 1.56 µg/mL (≈ 1.29 µM) | 1.56 µg/mL (≈ 1.29 µM) | 25 µg/mL (≈ 20.7 µM)
CCC1OC(=O)CC(OC(C)=O)C(C)C(OC2OC(C)C(OC3CC(C)(O)C(OC(=O)Cc4cccnc4)C(C)O3)C(N(C)C)C2O)C(CC=O)CC(C)C(=O)C=CC(C)=CC1COC1OC(C)C(O)C(OC)C1OC (stereo not drawn) [Compound 31, 3-acetyl-4"-(3-pyridyl)acetyltylosin] | 0.39 µg/mL (≈ 0.362 µM) | 12.5 µg/mL (≈ 11.6 µM) | 12.5 µg/mL (≈ 11.6 µM) | 0.19 µg/mL (≈ 0.176 µM) | 6.25 µg/mL (≈ 5.8 µM) | 0.39 µg/mL (≈ 0.362 µM) | 0.39 µg/mL (≈ 0.362 µM) | 12.5 µg/mL (≈ 11.6 µM)
CCC1OC(=O)CC(O)C(C)C(OC2OC(C)C(OC3CC(C)(O)C(OC(=O)CSc4ccc(C)cc4)C(C)O3)C(N(C)C)C2O)C(CC=O)CC(C)C(=O)C=CC(C)=CC1COC1OC(C)C(O)C(OC)C1OC (stereo not drawn) [Compound 35, 4"-(4-methylphenyl)thioacetyltylosin] | 1.56 µg/mL (≈ 1.44 µM) | 50 µg/mL (≈ 46.3 µM) | 25 µg/mL (≈ 23.1 µM) | 0.78 µg/mL (≈ 0.722 µM) | 12.5 µg/mL (≈ 11.6 µM) | 1.56 µg/mL (≈ 1.44 µM) | 1.56 µg/mL (≈ 1.44 µM) | 25 µg/mL (≈ 23.1 µM)
CCC1OC(=O)CC(O)C(C)C(OC2OC(C)C(OC3CC(C)(O)C(OC(=O)CSc4cccc(C)c4)C(C)O3)C(N(C)C)C2O)C(CC=O)CC(C)C(=O)C=CC(C)=CC1COC1OC(C)C(O)C(OC)C1OC (stereo not drawn) [Compound 36, 4"-(3-methylphenyl)thioacetyltylosin] | 0.78 µg/mL (≈ 0.722 µM) | 50 µg/mL (≈ 46.3 µM) | 50 µg/mL (≈ 46.3 µM) | 0.39 µg/mL (≈ 0.361 µM) | 25 µg/mL (≈ 23.1 µM) | 0.78 µg/mL (≈ 0.722 µM) | 0.78 µg/mL (≈ 0.722 µM) | 25 µg/mL (≈ 23.1 µM)
